Holding throughout (type): biochemical
The target in experiment [1] is T1, JAK1 (Homo sapiens, UniProt P23458).
T1 construct: made in house; host or cells: SF9 insect cells (baculovirus)
The experiment is described as follows: JAK1 inhibition (Table 4). The settings on record: read-out: JAK1 Ki.

Experiment [2] deals with T2, JAK2 (Homo sapiens, UniProt O60674).
T2 construct: made in house; host or cells: SF9 insect cells (baculovirus)
The experiment is described as follows: JAK2 inhibition (Table 4). The following applies: read-out: JAK2 Ki.

In experiment [3] the target is T3, JAK3 (Homo sapiens, UniProt P52333).
T3 construct: made in house; host or cells: SF9 insect cells (baculovirus)
T3 sequence (P52333 783-1124): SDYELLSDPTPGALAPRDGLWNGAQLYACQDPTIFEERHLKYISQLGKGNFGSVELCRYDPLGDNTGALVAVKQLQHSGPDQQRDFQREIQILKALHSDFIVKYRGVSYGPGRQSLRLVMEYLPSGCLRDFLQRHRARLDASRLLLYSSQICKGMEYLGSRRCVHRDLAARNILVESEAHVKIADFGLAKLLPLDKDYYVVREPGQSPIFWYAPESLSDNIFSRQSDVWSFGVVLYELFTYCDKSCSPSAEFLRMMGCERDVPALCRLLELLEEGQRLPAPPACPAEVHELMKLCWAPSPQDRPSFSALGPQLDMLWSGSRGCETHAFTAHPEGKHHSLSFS
The experiment is described as follows: JAK3 inhibition (Table 4). The following applies: read-out: JAK3 Ki.

Experiment [4] concerns the target T4, TYK2 (Homo sapiens, UniProt P29597).
T4 construct: made in house; host or cells: SF9 insect cells (baculovirus)
T4 sequence (P29597 873-1187): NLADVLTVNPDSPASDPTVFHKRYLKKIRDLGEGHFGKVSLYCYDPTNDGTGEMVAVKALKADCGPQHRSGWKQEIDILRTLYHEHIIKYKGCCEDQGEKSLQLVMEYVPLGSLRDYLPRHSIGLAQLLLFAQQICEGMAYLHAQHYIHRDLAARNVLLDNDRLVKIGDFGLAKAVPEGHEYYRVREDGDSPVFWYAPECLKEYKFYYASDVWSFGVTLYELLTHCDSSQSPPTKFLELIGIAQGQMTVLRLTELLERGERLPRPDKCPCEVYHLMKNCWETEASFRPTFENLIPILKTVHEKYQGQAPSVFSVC
The experiment is described as follows: TYK2 inhibition (Table 4).

T1 sequence (P23458 852-1154): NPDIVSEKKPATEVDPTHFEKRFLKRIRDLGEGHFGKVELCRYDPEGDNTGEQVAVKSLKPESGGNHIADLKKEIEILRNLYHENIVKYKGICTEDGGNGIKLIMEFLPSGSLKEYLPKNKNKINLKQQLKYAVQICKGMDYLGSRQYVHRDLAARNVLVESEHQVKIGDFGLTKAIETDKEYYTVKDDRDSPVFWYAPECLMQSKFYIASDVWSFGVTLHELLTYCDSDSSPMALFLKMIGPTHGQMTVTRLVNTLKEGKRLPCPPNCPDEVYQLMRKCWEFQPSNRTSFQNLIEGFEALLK
T2 sequence (O60674 812-1132): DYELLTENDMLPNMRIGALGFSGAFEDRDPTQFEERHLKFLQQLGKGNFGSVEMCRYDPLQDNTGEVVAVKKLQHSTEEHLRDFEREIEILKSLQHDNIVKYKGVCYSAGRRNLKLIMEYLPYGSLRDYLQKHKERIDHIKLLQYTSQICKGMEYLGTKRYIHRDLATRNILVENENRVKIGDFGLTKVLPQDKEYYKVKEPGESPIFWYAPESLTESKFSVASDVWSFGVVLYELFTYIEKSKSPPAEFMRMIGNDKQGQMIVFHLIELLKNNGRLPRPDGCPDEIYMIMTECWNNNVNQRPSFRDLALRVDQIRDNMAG

As for `CN1CCOCC1C(=O)N1CCC(n2cnc3cnc4[nH]ccc4c32)CC1` (single isomer, unassigned) [Example 197a, (4-Methyl-morpholin-3-yl)-[4-(6H-1,2,3,5,6-tetraaza-as-indacen-1-yl)-piperidin-1-yl]-methanone], the Ki (as a rule, a dissociation constant, usually derived from enzyme kinetics or from competition with a known ligand) in experiment [1] was 0.122 µM; in experiment [2] it was 0.217 µM; in experiment [3] it was 1.93 µM; in experiment [4], 2.72 µM.
As for `NC1CCCC(n2cnc3cnc4[nH]ccc4c32)C1` (single isomer, unassigned) [Example 365, 3-(6H-1,3,5,6-Tetraaza-as-indacen-1-yl)-cyclohexylamine], the Ki stood at 0.0241 µM in experiment [1], 0.113 µM in experiment [2], 0.331 µM in experiment [3] and 0.186 µM in experiment [4].
`NC1CCCC(n2cnc3cnc4[nH]ccc4c32)C1` (single isomer, unassigned) [Example 366, 3-(6H-1,3,5,6-Tetraaza-as-indacen-1-yl)-cyclohexylamine]: the Ki in experiment [1] came to 0.0459 µM; in experiment [2], 0.0698 µM; in experiment [3], 0.381 µM; in experiment [4], 0.299 µM.
As to `NC1CCCC(n2cnc3cnc4[nH]ccc4c32)C1` (single isomer, unassigned) [Example 367, 3-(6H-1,3,5,6-Tetraaza-as-indacen-1-yl)-cyclohexylamine], the Ki in experiment [1] was 0.0422 µM; in experiment [2], 0.0904 µM; in experiment [3], 0.453 µM; in experiment [4], 0.157 µM.
Regarding `NC1CCCC(n2cnc3cnc4[nH]ccc4c32)C1` (single isomer, unassigned) [Example 368, 3-(6H-1,3,5,6-Tetraaza-as-indacen-1-yl)-cyclohexylamine], the Ki in experiment [1] was found to be 0.0278 µM; in experiment [2], 0.0193 µM; in experiment [3] it was 0.419 µM; in experiment [4] it was 0.13 µM.
For the molecule `CC(C1CCCO1)n1cnc2cnc3[nH]ccc3c21` (single isomer, unassigned) [Example 417, 1-[1-(Tetrahydro-furan-2-yl)-ethyl]-1,6-dihydro-1,3,5,6-tetraaza-as-indacene], the Ki was found to be 0.0893 µM in experiment [1], 0.0741 µM in experiment [2], 0.0431 µM in experiment [3] and 0.341 µM in experiment [4].
In the case of `CC(C1CCCO1)n1cnc2cnc3[nH]ccc3c21` (single isomer, unassigned) [Example 418, 1-[1-(Tetrahydro-furan-2-yl)-ethyl]-1,6-dihydro-1,3,5,6-tetraaza-as-indacene], the Ki in experiment [1] worked out at 0.0348 µM; in experiment [2] it was 0.0299 µM; in experiment [3] it was 0.0335 µM; in experiment [4], 0.173 µM.
Take `Cc1nc2cnc3[nH]ccc3c2n1C(C)C1CCCO1` (single isomer, unassigned) [Example 426, 2-Methyl-1-[1-(tetrahydro-furan-2-yl)-ethyl]-1,6-dihydro-1,3,5,6-tetraaza-as-indacene]: the Ki was found to be 0.0596 µM in experiment [1], 0.0567 µM in experiment [2], 0.0262 µM in experiment [3] and 0.335 µM in experiment [4].
As to `c1cc2c(ncc3nnn(C4CCCOC4)c32)[nH]1` (single isomer, unassigned) [Example 459, 1-(Tetrahydro-pyran-3-yl)-1,6-dihydro-1,2,3,5,6-pentaaza-as-indacene], the Ki in experiment [1] was determined as 0.034 µM; in experiment [2], 0.0599 µM; in experiment [3] it was 0.282 µM; in experiment [4] it was 0.127 µM.
`c1cc2c(ncc3nnn(C4CCCOC4)c32)[nH]1` (single isomer, unassigned) [Example 460, 1-(Tetrahydro-pyran-3-yl)-1,6-dihydro-1,2,3,5,6-pentaaza-as-indacene]: the Ki in experiment [1] is 0.00836 µM; in experiment [2], 0.0173 µM; in experiment [3] it was 0.313 µM; in experiment [4] it was 0.0765 µM.
Regarding `C[C@H](O)c1nc2cnc3[nH]ccc3c2n1C1CCCOC1` (single isomer, unassigned) [Example 461], the Ki turned out to be 0.354 µM in experiment [1], 1.39 µM in experiment [2], 1.18 µM in experiment [3] and 1.58 µM in experiment [4].
As to `C[C@H](O)c1nc2cnc3[nH]ccc3c2n1C1CCCOC1` (single isomer, unassigned) [Example 462], the Ki was determined as 0.09 µM in experiment [1], 0.538 µM in experiment [2], 1.16 µM in experiment [3] and 1.37 µM in experiment [4].
Turning to `OCc1nc2cnc3[nH]ccc3c2n1C1CCCOC1` (single isomer, unassigned) [Example 463, [1-(Tetrahydro-pyran-3-yl)-1,6-dihydro-1,3,5,6-tetraaza-as-indacen-2-yl]-methanol], the Ki came out at 0.0122 µM in experiment [1], 0.0749 µM in experiment [2], 0.191 µM in experiment [3] and 0.0555 µM in experiment [4].
For `OCc1nc2cnc3[nH]ccc3c2n1C1CCCOC1` (single isomer, unassigned) [Example 464, [1-(Tetrahydro-pyran-3-yl)-1,6-dihydro-1,3,5,6-tetraaza-as-indacen-2-yl]-methanol] the same measures were 0.0569 µM, 0.224 µM, 0.412 µM and 0.187 µM.
Turning to `c1cc2c(ncc3ncn(C4CCCOC4)c32)[nH]1` (single isomer, unassigned) [Example 465, 1-(Tetrahydro-pyran-3-yl)-1,6-dihydro-1,3,5,6-tetraaza-as-indacene], the Ki amounted to 0.0235 µM in experiment [1], 0.0499 µM in experiment [2], 0.0508 µM in experiment [3] and 0.0706 µM in experiment [4].
Turning to `c1cc2c(ncc3ncn(C4CCCOC4)c32)[nH]1` (single isomer, unassigned) [Example 466, 1-(Tetrahydro-pyran-3-yl)-1,6-dihydro-1,3,5,6-tetraaza-as-indacene], the inhibition constant Ki amounted to 0.00966 µM in experiment [1], 0.0246 µM in experiment [2], 0.0756 µM in experiment [3] and 0.0618 µM in experiment [4].
As for `CC(C)(C)OC(=O)NC1CCCC(n2cnc3cnc4[nH]ccc4c32)C1` (single isomer, unassigned) [Example 474, [3-(6H-1,3,5,6-Tetraaza-as-indacen-1-yl)-cyclohexyl]-carbamic acid tert-butyl ester], the Ki in experiment [1] was determined as 0.00207 µM; in experiment [2] it was 0.0044 µM; in experiment [3] it was 0.0196 µM; in experiment [4], 0.0471 µM.
Consider `CC(C)(C)OC(=O)NC1CCCC(n2cnc3cnc4[nH]ccc4c32)C1` (single isomer, unassigned) [Example 475, [3-(6H-1,3,5,6-Tetraaza-as-indacen-1-yl)-cyclohexyl]-carbamic acid tert-butyl ester], for which the Ki in experiment [1] came out at 0.0324 µM; in experiment [2], 0.11 µM; in experiment [3], 0.0219 µM; in experiment [4], 2.25 µM.
Take `CC(C)(C)OC(=O)NC1CCCC(n2cnc3cnc4[nH]ccc4c32)C1` (single isomer, unassigned) [Example 476, [3-(6H-1,3,5,6-Tetraaza-as-indacen-1-yl)-cyclohexyl]-carbamic acid tert-butyl ester]: the Ki in experiment [1] amounted to 0.0123 µM; in experiment [2], 0.0291 µM; in experiment [3] it was 0.0684 µM; in experiment [4], 0.302 µM.
In the case of `CC(C)(C)OC(=O)NC1CCCC(n2cnc3cnc4[nH]ccc4c32)C1` (single isomer, unassigned) [Example 477, [3-(6H-1,3,5,6-Tetraaza-as-indacen-1-yl)-cyclohexyl]-carbamic acid tert-butyl ester], the Ki in experiment [1] came out at 0.0407 µM; in experiment [2] it was 0.171 µM; in experiment [3], 0.236 µM; in experiment [4] it was 0.799 µM.

These data come from patent publication US8461328B2, “Tricyclic heterocyclic compounds, compositions and methods of use thereof” (Genentech, Inc., priority 2010, dated 2013).
